Read-outs that look alike come from different tables or passages of the source.
Legend:
[1] = test system: MMP9 mRNA in CAL-27 cells; test: RT-qPCR MMP9 mRNA, CAL-27; format: cell-based; settings: CAL-27, 24 h, vs control
Method: (§1) Equal amounts of RNA were reverse transcribed into cDNA using the Reverse Transcription Kit (AG11705, Accurate Biology, Guangzhou, China) following the manufacturer’s instructions. Quantitative PCR was performed on a QIAGEN Rotor-GeneQ system (9001862, QIAGEN, Hilden, Germany) with SYBR Green Pro Taq HS Premix II (AG11702, Accurate Biology, China).
(§2) The PCR protocol consisted of initial denaturation at 95 °C for 30 s, followed by 40 cycles of 95 °C for 5 s and 60 °C for 30 s. All reactions were performed in triplicate, with melting curve analysis confirming amplification specificity. The expression of the target genes was normalized to GAPDH, and fold changes were calculated in the manner of the 2^−ΔΔCT .

[2] = test system: SAS cells; test: CCK-8 proliferation assay, SAS; format: cell-based
Method: (§3) The OSCC cell lines CAL-27 (STCC12901P, Servicebio, Wuhan, China) and SAS (CC0706, Cellcook, Guangzhou, China) were cultured in Dulbecco Modified Eagle Medium F12 (DMEM/F12) (G4610-500ML, Servicebio, Wuhan, China) supplemented with 10% fetal bovine serum (FBS) (AB-FBS-DIA1050, ABW, Shanghai, China) and 100 U/mL penicillin-streptomycin-gentamicin solution (G4014-100ML, Servicebio, Wuhan, China). VERO cells were cultured in DMEM (G4524-500ML, Servicebio, Wuhan, China) supplemented with 10% FBS (AB-FBS-DIA1050, ABW, China) and 100 U/mL penicillin–streptomycin–gentamicin solution (G4014-100ML, Servicebio, Wuhan, China). […] were maintained at 37 °C in a humidified 5% CO2 incubator. For experiments, 1 × 10^6 cells were seeded per T-25 culture flask.
(§4) CAL-27, SAS, and VERO cells were seeded in 96-well plates at a density of 5000 cells per well. At specified time intervals, 10 μL of Cell Counting Kit-8 (CCK-8) reagent (K1018, Apexbio, Boston, MA, USA) was added to each well and incubated for 2 h. Absorbance at 450 nm was measured using a microplate reader (Infinite M200 Pro, Tecan Group, Männedorf, Switzerland).

[3] = test system: SAS cells; test: Hoechst 33342 staining, SAS; format: cell-based; settings: 24 h, working concentrations, vs NC
Method: (§5) After 24 h drug treatment at the predefined working concentrations, CAL-27 and SAS cells were dyed with 300 μL Hoechst 33342 staining (C1022, Beyotime, China) in the dark at 37 °C for 10 min. Then, the residual Hoechst 33342 staining was washed 3 times with 1 × phosphate-buffered saline (PBS, G4250-500ML, Servicebio, China). The images were then immediately examined under an inverted fluorescence microscope (CX23, Olympus, Japan).

[4] = test system: CAL-27 cells; test: CCK-8 proliferation assay, CAL-27; format: cell-based; settings: Homo sapiens
Method: as §3, §4

[5] = test system: COX-2 in SAS cells; test: ELISA COX-2, SAS; format: cell-based; settings: working concentrations, vs control (compounds also vs CXB)
Method: With the aim of determining COX-2 concentrations in OSCC cell lines after treatment at the predefined working concentrations, we used a specialized ELISA kit (F0564-A, FANKEW, Shanghai, China), following the manufacturer’s instructions. Briefly, 40 μL of the sample dilution and 10 μL of the sample (sample final dilution is 5-fold) were added to testing sample wells and incubated for 30 min at 37 °C. After that, discard the liquid and wash the plate using washing buffer. Repeat 5 times, drying by patting. Subsequently, samples were incubated with 50 μL of HRP-conjugate reagent in each well for 30 min at 37 °C. Wash 5 times, then add Chromogen Solution A and B and incubate for 10 min at 37 °C. Lastly, 50 μL of stop solution was added to each well to stop the reaction, and the sample absorbance was measured using a microplate reader at 450 nm after adding stop solution within 15 min.

[6] = test system: VERO cells; test: CCK-8 cytotoxicity assay, VERO; format: cell-based, African green monkey; settings: Chlorocebus sabaeus; VERO, CCK-8, 24 h
Method: as §3, §4

[7] = test system: SAS cells; test: Annexin V-FITC/PI flow cytometry apoptosis, SAS; format: cell-based; settings: 24 h, vs control
Method: (§6) After 24 h drug treatment at the predefined working concentrations, CAL-27 and SAS cells were trypsinized, centrifuged (200× g, 5 min, RT), and washed twice with 1 mL ice-cold PBS. Cell aliquots ((5–10) × 10^4 cells) were resuspended in 195 μL Annexin V-FITC binding buffer, followed by sequential addition of 5 μL Annexin V-FITC and 10 μL propidium iodide (PI) (BMS500FI-100, Thermo Fisher Scientific, Wien, Austria) with gentle mixing. After 10–20 min of incubation in darkness (20–25 °C) with intermittent resuspension (2–3 times), samples were placed on ice and analyzed within 1 h using a flow cytometer (CytExpert software [Version 2.4.0.28, Beckman Coulter, Brea, CA, USA]). Triplicate independent experiments were performed for statistical analysis.

[8] = test system: CAL-27 cells; test: Annexin V-FITC/PI flow cytometry apoptosis, CAL-27; format: cell-based; settings: CAL-27, 24 h, vs control
Method: as §6

[9] = test system: MMP2 mRNA in SAS cells; test: RT-qPCR MMP2 mRNA, SAS; format: cell-based; settings: vs control
Method: as §1, §2

[10] = test system: CAL-27 cells; test: Hoechst 33342 staining, CAL-27; format: cell-based; settings: CAL-27, 24 h, working concentrations, vs NC
Method: as §5

[11] = test system: COX-2 mRNA in SAS cells; test: RT-qPCR COX-2 mRNA, SAS; format: cell-based; settings: working concentrations, 24 h, vs control
Method: as §1, §2

[12] = test system: MMP2 mRNA in CAL-27 cells; test: RT-qPCR MMP2 mRNA, CAL-27; format: cell-based; settings: CAL-27, 24 h, vs control
Method: as §1, §2

## Cc1ccc(-c2cc(C(F)(F)F)nn2-c2ccc(S(N)(=O)=O)cc2)cc1 [CXB, celecoxib, reference compound]
[1]
  MMP9 mRNA expression: even lower
[2]; 24 h, read-out: IC50 (range)
  IC50: 53.9 to 61.5 µM
[2]; SAS, CCK-8, read-out: IC50 SAS
  IC50: 57.6 µM
[3]
  apoptotic cells (Hoechst 33342, fluorescence microscopy): significant increase
[4]; CAL-27, 24 h, read-out: IC50 (range), CAL-27, CCK-8, 24 h, given as a range
  IC50: 52.4 to 61.9 µM
[4]; CAL-27, CAL-27, CCK-8, read-out: IC50 CAL-27
  IC50: 57 µM
[5]
  COX-2 level (ELISA): no marked difference
[6]
  IC50: 243 µM
[7]
  total apoptotic cell population (early and late apoptosis): comparable pro-apoptotic efficacy
[8]
  total apoptotic cell population (early and late apoptosis): comparable pro-apoptotic efficacy
[9]
  MMP2 mRNA expression: markedly suppressed
[10]
  apoptotic cells (Hoechst 33342, fluorescence microscopy): significant increase
[11]
  COX-2 mRNA level: marked upregulation
[12]
  MMP2 mRNA expression: even lower

Source: paper PMC12469672, “Effects on Oral Squamous Carcinoma Cell Lines and Their Mechanisms of Pyrazole N-Aryl Sulfonate: A Novel Class of Selective Cyclooxygenase-2 Inhibitors” (International Journal of Molecular Sciences, 2025)
